Test results: the NIST ThermoML archive (doi:10.1021/acs.jced.5b00259)

Experiment: xn = mol fraction of the nth substance listed
Details: 100 kPa, Liquid

CCOS(=O)(=O)[O-].CC[NH+]=C(N(C)C)N(C)C [2-ethyl-1,1,3,3-tetramethylguanidinium ethyl sulfate] + CCO
Details	mass density [kg/m3]	viscosity [mPa·s]
293.15 K, x1 = 0.0998	910.21	2.824
293.15 K, x1 = 0.2003	984.3	5.826
293.15 K, x1 = 0.3006	1033.78	11.42
293.15 K, x1 = 0.4016	1069.61	22.83
293.15 K, x1 = 0.498	1095.76	40.88
293.15 K, x1 = 0.5996	1117.54	73.39
293.15 K, x1 = 0.6976	1134.51	127.4
293.15 K, x1 = 0.7969	1148.58	213.6
293.15 K, x1 = 0.9008	1160.83	385.6
293.15 K, x1 = 1	1170.76	673.4
298.15 K, x1 = 0.0998	906.2	2.546
298.15 K, x1 = 0.2003	980.34	5.136
298.15 K, x1 = 0.3006	1030	9.821
298.15 K, x1 = 0.4016	1065.96	19.07
298.15 K, x1 = 0.498	1092.12	33.16
298.15 K, x1 = 0.5996	1113.91	57.2
298.15 K, x1 = 0.6976	1130.91	95.44
298.15 K, x1 = 0.7969	1145.02	154
298.15 K, x1 = 0.9008	1157.3	264.4
298.15 K, x1 = 1	1167.24	441.5
303.15 K, x1 = 0.0998	902.18	2.307
303.15 K, x1 = 0.2003	976.55	4.559
303.15 K, x1 = 0.3006	1026.22	8.524
303.15 K, x1 = 0.4016	1062.27	16.15
303.15 K, x1 = 0.498	1088.47	27.11
303.15 K, x1 = 0.5996	1110.31	45.41
303.15 K, x1 = 0.6976	1127.33	73.08
303.15 K, x1 = 0.7969	1141.46	114.2
303.15 K, x1 = 0.9008	1153.79	187.9
303.15 K, x1 = 1	1163.76	302.5
308.15 K, x1 = 0.0998	898.18	2.096
308.15 K, x1 = 0.2003	972.66	4.072
308.15 K, x1 = 0.3006	1022.45	7.459
308.15 K, x1 = 0.4016	1058.6	13.81
308.15 K, x1 = 0.498	1084.84	22.56
308.15 K, x1 = 0.5996	1106.73	36.71
308.15 K, x1 = 0.6976	1123.77	57.39
308.15 K, x1 = 0.7969	1137.92	86.55
308.15 K, x1 = 0.9008	1150.29	134.9
308.15 K, x1 = 1	1160.28	214.6
313.15 K, x1 = 0.0998	894.15	1.91
313.15 K, x1 = 0.2003	968.7	3.656
313.15 K, x1 = 0.3006	1018.66	6.577
313.15 K, x1 = 0.4016	1054.91	11.92
313.15 K, x1 = 0.498	1081.22	19.04
313.15 K, x1 = 0.5996	1103.16	30.14
313.15 K, x1 = 0.6976	1120.23	45.97
313.15 K, x1 = 0.7969	1134.39	67.31
313.15 K, x1 = 0.9008	1146.78	103.7
313.15 K, x1 = 1	1156.8	157.2
318.15 K, x1 = 0.0998	890.12	1.746
318.15 K, x1 = 0.2003	964.81	3.298
318.15 K, x1 = 0.3006	1014.86	5.839
318.15 K, x1 = 0.4016	1051.24	10.38
318.15 K, x1 = 0.498	1077.62	16.26
318.15 K, x1 = 0.5996	1099.62	25.65
318.15 K, x1 = 0.6976	1116.66	37.27
318.15 K, x1 = 0.7969	1130.88	53.38
318.15 K, x1 = 0.9008	1143.26	79.6
318.15 K, x1 = 1	1153.33	118.3
323.15 K, x1 = 0.0998	886.07	1.601
323.15 K, x1 = 0.2003	960.91	2.99
323.15 K, x1 = 0.3006	1011.05	5.215
323.15 K, x1 = 0.4016	1047.55	9.094
323.15 K, x1 = 0.498	1074.02	14.01
323.15 K, x1 = 0.5996	1096.11	21.2
323.15 K, x1 = 0.6976	1113.14	30.75
323.15 K, x1 = 0.7969	1127.39	43.06
323.15 K, x1 = 0.9008	1139.76	62.7
323.15 K, x1 = 1	1149.87	91.22
